{"source": "patent US8691514B2", "about": "“Method for selective control of helper T cell function” (Japan Science and Technology Agency, priority 2008, dated 2014)", "origin": "cited, not measured here", "key": {"[1]": {"test_system": "CD4 positive T cell", "settings": "treated with GlcCer synthetase inhibitor; Nagafuku et al. 2003, Blank et al. 2005"}, "[2]": {"test_system": "CD8 positive T cell", "settings": "treated with GlcCer synthetase inhibitor; Nagafuku et al. 2003, Blank et al. 2005"}}}
{"compound": "CCCCCCCCCC(=O)N[C@H](CN1CCOCC1)[C@H](O)c1ccccc1.Cl", "note": "[D-PDMP, D-threo-1-phenyl-2-decanoylamiono-3-morpholino-1-prppanol.HCl]", "values": [{"measurement": "function of the CD4 positive T cell", "setting": "[1]", "result": "suppressed"}, {"measurement": "function of the CD8 positive T cell", "setting": "[2]", "result": "suppressed"}]}
